Measured values reported in patent US20080248511A1, “METHODS TO QUENCH LIGHT FROM OPTICAL REACTIONS” (priority 2007, published 2008).
Read-outs that look alike come from different tables or passages of the source.

What was measured:
[1] = target: T1, firefly luciferase (Photinus pyralis, UniProt P08659); test: biochemical; conditions: 0.5% detergent in Luciferase Assay Reagent; read-out: Retained Firefly Luciferase Luminescence (%)
[2] = target: T2, Renilla luciferase (Renilla reniformis, UniProt P27652); test: biochemical; assay type: biochemical
T2 sequence (P27652 1-311): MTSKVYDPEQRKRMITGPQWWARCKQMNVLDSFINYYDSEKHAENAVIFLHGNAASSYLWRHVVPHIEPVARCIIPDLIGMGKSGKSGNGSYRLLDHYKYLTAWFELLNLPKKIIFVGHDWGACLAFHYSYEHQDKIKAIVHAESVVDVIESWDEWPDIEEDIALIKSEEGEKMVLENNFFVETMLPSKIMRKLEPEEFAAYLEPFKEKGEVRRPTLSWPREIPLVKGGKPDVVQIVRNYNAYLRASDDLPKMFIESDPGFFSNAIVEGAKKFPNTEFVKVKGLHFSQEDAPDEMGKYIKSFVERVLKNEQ

[3] = target: T1, firefly luciferase; test: Detergent screen with Tergitol NP-9, firefly luciferase (Example 3); assay type: biochemical; conditions: 0.06% quencher in reagent solution; 0.5% Tergitol NP-9
Procedure: (§1) Unless otherwise specified, materials were obtained from Sigma-Aldrich.
(§2) The firefly luciferase and Renilla luciferase enzymes were diluted as follows. Firefly luciferase was diluted to 14 ng/ml in Delbecco's Minimal Essential (DMEM) medium (Gibco/Invitrogen) containing 0.1% Prionex®. Renilla luciferase was diluted to 10 ng/ml in DMEM medium containing 0.1% Prionex®.
(§3) The luciferase reactions were initiated by adding 50 μl of the firefly luciferase or Renilla luciferase enzyme solution to 50 μl of reagent solution. The reactions were performed as described above. The retained firefly luciferase and Renilla luciferase luminescence as well as the selectivity values for each quencher were calculated (Table 3). The values listed are based on 0.06% quencher in the reagent solution.

[4] = target: T2, Renilla luciferase; test: Detergent screen with Tergitol NP-9, Renilla luciferase (Example 3); assay type: biochemical
Procedure: as §1, §2, §3

[5] = target: T2, Renilla luciferase; test: Detergent titration with Tergitol NP-9, digitonin or no lysing agent, Renilla luciferase (Example 4); assay type: biochemical; conditions: for remaining activity at 0.0005 % / remaining activity at 0.005 % / remaining activity at 0.05 %: read-out: Relative Renilla Luc Intensity
[6] = target: T1, firefly luciferase; test: Quaternary ammonium/phosphonium detergent screen, firefly luciferase (Example 5); assay type: biochemical; conditions: final conc. 0.10% detergent; Tergitol NP-9 present; read-out: Retained Firefly Luciferase Luminescence (%)
Procedure: (§4) Each detergent was added at 0.2% to a reagent solution containing 50 mM Tricine pH 8.3, 3.5 mM MgSO4, 1 mM CDTA, 30 mM thiourea and 0.5% Tergitol NP-9. This solution or one not containing a detergent inhibitor was used to resuspend the Bright-Glo™ luciferin substrate (Promega).
(§5) The luciferase reactions were initiated by adding 100 μl of the firefly luciferase or Renilla luciferase enzyme solutions to 100 μl of reagent solution. The reactions were performed as described above. […] The detergent concentrations listed refer to the final concentration in the reaction.

[7] = target: T2, Renilla luciferase; test: Quaternary ammonium/phosphonium detergent screen, Renilla luciferase (Example 5); assay type: biochemical; conditions: final conc. 0.10% detergent
Procedure: as §4, §5

[8] = target: T1, firefly luciferase; test: Quaternary ammonium/phosphonium detergent screen, firefly luciferase (Example 5); assay type: biochemical; conditions: final conc. 0.03% detergent; Tergitol NP-9 present; read-out: Retained Firefly Luciferase Luminescence (%)
[9] = target: T2, Renilla luciferase; test: Quaternary ammonium/phosphonium detergent screen, Renilla luciferase (Example 5); assay type: biochemical; conditions: final conc. 0.03% detergent
[10] = Tergitol NP-9 present, read-out: Retained Renilla Luciferase Luminescence (%)

T1 sequence (P08659 whole entry): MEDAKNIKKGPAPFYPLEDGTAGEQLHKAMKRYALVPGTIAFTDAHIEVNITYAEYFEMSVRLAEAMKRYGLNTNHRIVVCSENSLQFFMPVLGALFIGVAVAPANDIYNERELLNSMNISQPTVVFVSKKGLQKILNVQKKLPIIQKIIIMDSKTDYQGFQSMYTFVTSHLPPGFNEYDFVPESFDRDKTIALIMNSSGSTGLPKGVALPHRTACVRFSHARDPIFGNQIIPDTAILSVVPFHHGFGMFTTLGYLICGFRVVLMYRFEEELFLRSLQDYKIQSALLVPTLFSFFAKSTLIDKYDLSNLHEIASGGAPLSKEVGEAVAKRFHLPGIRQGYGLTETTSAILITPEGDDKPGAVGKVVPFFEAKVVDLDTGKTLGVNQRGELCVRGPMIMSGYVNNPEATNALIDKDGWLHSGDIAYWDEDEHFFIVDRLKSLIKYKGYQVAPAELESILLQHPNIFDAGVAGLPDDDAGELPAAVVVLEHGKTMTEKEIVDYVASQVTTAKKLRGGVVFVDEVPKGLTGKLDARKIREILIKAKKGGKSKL

CCCCCCCCCCCC[N+](C)(C)Cc1ccccc1.[Br-] [Benzyldimethyldodecylammonium bromide]
remaining activity at 0.5 % [1]: 20.7%
remaining activity at 0.5 % ([2]; 0.5% detergent in Renilla Luciferase Assay Reagent, read-out: Retained Renilla Luciferase Luminescence (%)): 0.08%
Selectivity Value ([2]; retained firefly / retained Renilla, 0.5% detergent): 259.9
Retained Firefly Luminescence (%) [3]: 119%
Retained Renilla Luminescence (%) ([4]; 0.06% quencher in reagent solution, 0.5% Tergitol NP-9): 22%
lowering of selectivity value relative to the screen without Tergitol NP-9 ([4]; Tergitol NP-9 in the reagent solution): about 50 fold
Selectivity Value ([4]; retained firefly / retained Renilla, 0.06% quencher, 0.5% Tergitol NP-9): 5.4
Selective Inhibition (Ff Luc Inh/Ren Luc Inh) ([5]; 0.0005% detergent, Dig): 1.8
remaining activity at 0.0005 % ([5]; 0.0005% detergent, Dig): 61%
Selective Inhibition (Ff Luc Inh/Ren Luc Inh) ([5]; 0.0005% detergent, Terg): 1.1
remaining activity at 0.0005 % ([5]; 0.0005% detergent, Terg): 90%
Selective Inhibition (Ff Luc Inh/Ren Luc Inh) ([5]; 0.0005% detergent, Water): 2.2
remaining activity at 0.0005 % ([5]; 0.0005% detergent, Water): 54%
Selective Inhibition (Ff Luc Inh/Ren Luc Inh) ([5]; 0.0050% detergent, Dig): 29
remaining activity at 0.005 % ([5]; 0.0050% detergent, Dig): 5%
Selective Inhibition (Ff Luc Inh/Ren Luc Inh) ([5]; 0.0050% detergent, Terg): 1.7
remaining activity at 0.005 % ([5]; 0.0050% detergent, Terg): 58%
Selective Inhibition (Ff Luc Inh/Ren Luc Inh) ([5]; 0.0050% detergent, Water): 36
remaining activity at 0.005 % ([5]; 0.0050% detergent, Water): 4%
remaining activity at 0.05 % ([5]; 0.0500% (w:v) detergent, Terg (0.5% Tergitol NP-9)): 2%
Selective Inhibition (Ff Luc Inh/Ren Luc Inh) ([5]; 0.0500% detergent, Dig): 1575
remaining activity at 0.05 % ([5]; 0.0500% detergent, Dig (20 μg/ml digitonin)): 0.02%
Selective Inhibition (Ff Luc Inh/Ren Luc Inh) ([5]; 0.0500% detergent, Terg): 21
Selective Inhibition (Ff Luc Inh/Ren Luc Inh) ([5]; 0.0500% detergent, Water): 3627
remaining activity at 0.05 % ([5]; 0.0500% detergent, Water (no lysing agent)): 0.02%
remaining activity at 0.1 % [6]: 97%
Selectivity Value [7]: 48.5
remaining activity at 0.1 % [7, 10]: 2%
remaining activity at 0.03 % [8]: 100%
Selectivity Value [9]: 4
remaining activity at 0.03 % [9, 10]: 25%
